Results: patent US6998249B1, “Toxicity screening method” (priority 1999, dated 2006)
Like-named read-outs stand apart in the source and are kept apart here.

Assays:
[1] = test system: H4IIE cells; assay: Cluster Analysis Toxicity Screening (CATS), combined cell number, GST, MTT and ATP assays; format: cell-based
Source text: (§1) The test compounds were received pre-weighed into glass vials. The preparation of 20 millimolar stock solutions was accomplished by adding a sufficient amount of dimethylsulfoxide (DMSO) directly into the vials. These stocks were used to prepare 200 micromolar stock solutions in DMSO. Both the 20 millimolar and 200 micromolar, stocks were used to prepare dosing solutions of 0.05, 0.1, 1.0, 5.0, 10.0, 20.0, 50.0, 100, and 300 micromolar in culture media with a final DMSO concentration of 0.5%. The stocks and dosing solutions were prepared on the day prior to dosing. The solutions were wrapped in foil and stored at 4° C. until the next morning.
(§2) Negative controls of media plus DMSO (0.5%) were included with and without cells. A digitonin (1 mM) treated group was included as a positive control for complete cell death.
(§3) Rat hepatoma derived H4IIE cells were used as the test system. The cells were obtained from ATCC (# CRL-1548) and subcultured in the laboratory. The culture medium used for these cells was Eagle's Minimum Essential Medium (MEM) with 10% Fetal Bovine Serum (FBS) and 10% calf serum. Certified FBS and calf serum were from Gibco Life Technologies.
(§4) 96-well plates were seeded with […] in 200 microliters of media 48 hour prior to dosing. On the morning of the third day after seeding, the test compounds were added to the plates in a 200 microliter volume of medium (DMSO=0.5%).
(§5) In this Example, ketoconazole was used as the test drug. Rat hepatoma cells were seeded into 96-well culture plates and allowed to establish growth for 48 hours. Following this growth phase, the cells were treated with 0, 0.05, 0.1, 1, 5, 10, 20, 50, 100, and 300 micromolar of ketoconazole in growth medium and 0.5% DMSO. […]

[2] = test system: H4IIE cells; assay: Cell proliferation (CYQUANT) cell number assay; format: cell-based, rat
Method: Cell number in each well was determined with the CYQUANT® cell proliferation kit from Molecular Probes. This assay is based on a DNA-specific binding dye that fluoresces upon interaction with DNA. Conversion to cell number is achieved by comparing sample fluorescence units to a standard curve based on fluorescence units/cell. The assay was performed essentially as described by the manufacturer with the following exceptions: The digitonin (1 mM) or Triton X 100 (1%) was added to the lysis buffer. The lysis buffer was added to the plates immediately after removing the plates from the −80° C. freezer. The plates were shaken for 20 min prior to reading the fluorescence.
Cell number was determined by establishing a calibration curve. In order to obtain fluorescence units (FU) per cell 1×10^6 cells were placed in a tube and centrifuged to a pellet. The pellet was then resuspended in 1 milliliters of a cell lysis buffer containing the DNA binding dye. Thus, one million cells in 1000 milliliters yields a relationship of 1000 cells per microliter of suspension. This provides FU/cell. Cell number for samples was determined by applying the FU obtained to the calibration curve. The percent change relative to controls was determined by dividing the treatment cell number by the control cell number and multiplying by 100.

[3] = test system: liver; conditions: humans; cited from earlier work
[4] = test system: isolated mitochondria; conditions: cited from earlier work
[5] = test system: H4IIE cells; conditions: rat, 24 h
Method: (§9) Measurements of A-GST leakage from cultured cells into the media can be used to assess membrane integrity. This assay is specific for the alpha form of GST that exists at high concentrations in the cytosol of hepatocytes. An ELISA kit purchased from Biotrin Inc. was used to measure GST.
(§10) On the morning after dosing the cells (approximately 24 hours) the media covering the cells in each well was removed and placed into new 96-well plates with appropriate labeling. These media plates were stored at −80° C. until needed for analysis.
(§11) Leakage of the GST enzyme is determined by collecting the media in which the cells were exposed to the test compound at the end of the 24 hour exposure period. Thus, GST values represent total GST lost over the exposure period. The control for 100% dead or maximum GST release is based on cells treated with 1 mM digitonin at T0. Percent dead cells relative to digitonin treated cells was determined and then subtracted from 100 to yield the percent live cells.

[6] = test system: H4IIE cells; assay: ATP assay (ATP-Lite); format: cell-based, rat
Method: Cellular Adenosine triphosphate (ATP) was determined with the ATP-Lite kit from Packard Instruments according to the manufacturer's instructions. This assay is based on a reaction between ATP+D-luciferin+oxygen catalyzed by luciferase to yield Oxyluciferin+AMP+PPi+CO2+light. The emitted light is proportional to the amount of ATP present. Rather than a “flash” type signal which has a very short half-life, this assay utilizes a “glow” technology that extends the signal half-life to 5 hours. In addition, a unique cell lysis reagent inhibits endogenous ATPases and therefore stabilizes cellular ATP by preventing its degradation to ADP.. ATP is present in all living cells and declines rapidly upon cell death. In addition, this assay in combination with the MTT assay provides an indicator of mitochondrial activity and the energy status of the cell.
Changes in ATP may be expressed as a percent change relative to controls by dividing the mean treatment luminescence values by the control values and multiplying by 100. An actual amount of ATP can also be determined by including an ATP calibration curve in the assay and then converting the luminescence response to an ATP concentration with the regression coefficients. Finally, it is possible to estimate the amount of ATP produced per cell, by dividing the pmol ATP data by cell number. Typically, cells try to maintain a stable level of ATP and therefore this parameter is not routinely calculated unless information on the stability of the ATP pool is desired.

[7] = test system: H4IIE cells; assay: MTT mitochondrial function assay; format: cell-based, rat
Method: (§6) (3-(4,5-dimethylthiazol-2-yl)-2,5-diphenyl-tetrazolium bromide (MTT). After the media was removed from a plate for GST analysis, the cells remaining in each well were evaluated for their ability to reduce the tetrazolium dye to formazan via mitochondrial dehydrogenase activity. An MTT stock solution was prepared in Earl's Buffered Salt Solution (EBSS) to a final concentration of 5.0 mg/ml. This stock was diluted 10-fold with complete media (0.5 mg/ml) just prior to use and warmed to 37° C. in a water bath. In some instances the MTT powder may be added directly to complete medium to give a final concentration of 0.5-mg/ml. Once the media was removed from all wells 200 microliter, of the 0.5 mg/ml MTT solution was added to each well and the plate was allowed to incubate at 37° C. for 3-4 hours. Color development is linear over this time.
(§7) After the 3-4 hour incubation, all media was removed and the purple formazan product was extracted by adding 200 microliters, of anhydrous isopropanol. The plates were covered with foil and placed on an orbital shaker for 30 min at room temperature. Each well was aspirated with a multi-channel pipette to insure solubilization of the formzan dye and then the plate was centrifuged at 3000 rpms in a Beckman Allegra 6R centrifuge equipped with a GH3.8 rotor to remove insoluble cellular debris. Analyses were performed by transferring 100 microliters, of supernatant to a clean 96-well plate and then reading the sample absorbance at 570 nm and the reference absorbance at 650 nm with a Packard scanning spectrophotometer.
(§8) At the end of the 24 hour exposure period the media was removed and the remaining attached cells were assayed for mitochondrial function. […] Percent control values were determined by dividing the mean absorbance of the treatment group by the mean absorbance of the control group and multiplying by 100.

[8] = MTT mitochondrial function assay; format: cell-based, rat; conditions: rat, H4IIE rat hepatoma cells; 24 hour exposure; read-out: TC50 for MTT
Method: as §6, §7, §8

[9] = test system: liver; conditions: rats; cited from earlier work
[10] = Cluster Analysis Toxicity Screening (CATS), combined cell number, GST, MTT and ATP assays; format: cell-based; conditions: rat, 24 hour exposure
Source text: as §1, §2, §3, §4, §5

[11] = test system: H4IIE cells; assay: Glutathione S-transferase (GST) leakage assay (membrane integrity); conditions: 6 hour exposure
Method: as §9, §10, §11

For `C[S+](C)[O-]` [DMSO, dimethylsulfoxide], the “concentrations with no effects on cell proliferation, MTT and GST” value ([1]; rat) was “below 2%”.
In the case of `C[C@@H]1[C@H](O)[C@@H](C)/C=C/C=C/C=C/C=C/C=C/C=C/C=C/[C@H](O[C@@H]2O[C@H](C)[C@@H](O)[C@H](N)[C@@H]2O)C[C@@H]2O[C@](O)(C[C@@H](O)C[C@@H](O)[C@H](O)CC[C@@H](O)C[C@@H](O)CC(=O)O[C@H]1C)C[C@H](O)[C@H]2C(=O)O` [amphotericin], the “influence of final DMSO concentration on toxicity” value [1] is reported as “No significant differences in toxicity”.
For `O=C(N[C@H](CO)[C@H](O)c1ccc([N+](=O)[O-])cc1)C(Cl)Cl` [chloramphenical], the “change of TC50 with exposure time” value ([1]; time course over a 72 hour exposure period, H4IIE cells) was “largest shift in TC50 values occurred between 24 and 48 hours”.
In the case of `CC(=O)N1CCN(c2ccc(OCC3COC(Cn4ccnc4)(c4ccc(Cl)cc4Cl)O3)cc2)CC1` (centres unmarked) [ketoconazole], the “effect on cell number” value ([2]; 24 hour exposure) is listed as “dose-related reduction in cell number”, the “sustained plasma concentration resulting in liver toxicity” value [3] is listed as 30 µM and the “effect on State III respiration” value [4] is listed as “direct inhibition”. For the same molecule, the “concentrations at which not toxic to cells by GST leakage” value [5] was “below 300 micromolar”, the “effect on ATP” value [6] was “reduced” and the “concentration of early toxic effects in ATP assay” value ([6]; rat, 24 h) was “below 20 micromolar”. For the same molecule, the “concentration of early toxic effects in MTT assay” value ([7]; 24 hour exposure) was “below 20 micromolar”, the “effect on MTT” value ([7]; 24 hour exposure) was “reduced” and the CC50 at 24 h [8] was 70 µM. The “sustained plasma concentration producing hepatic damage” value [9] was 60 µM, the “influence of final DMSO concentration on toxicity” value [1] was “No significant differences in toxicity” and the “Ctox, estimated plasma concentration that would produce toxicity” value ([1]; rat, 24 h) was 20 µM. For the same molecule, the “change of TC50 with exposure time” value ([1]; rat, 72 h) was “largest shift in TC50 values occurred between 24 and 48 hours”, the CC50 at 24 h ([10]; cell number, ATP, GST, read-out: TC50 for all other endpoints (than MTT)) was greater than 100 µM and the CC50 at 24 h ([10]; H4IIE cells, all parameters, read-out: TC50 values) was no less than 50 µM. The CC50 at 24 h ([10]; H4IIE cells, cell number, GST leakage, MTT, ATP, read-out: TC50, all parameters measured) was no less than 50 µM.
For `CC[C@H]1/C=C/C=C/C[C@@H](C)[C@H](O)[C@@](C)(O)C(=O)[C@@H](C)[C@H](O)[C@@H](C)C(=O)[C@@H](C)[C@H](O)[C@@H](C)/C=C/C(=O)O[C@@H]2[C@H](C)[C@H](CC1)O[C@]1(CC[C@H](C)[C@H](C[C@@H](C)O)O1)[C@H]2C` [oligomycin], the “effect on cell number” value ([2]; 6 hour exposure) was “unaffected”, the “effect on ATP” value ([6]; 6 hour exposure) was “completely depleted” and the “effect on MTT” value ([7]; 6 hour exposure) was “significantly reduced”. For the same molecule, the “effect on GST leakage” value [11] was “unaffected”.
